# Patent publication US20210015874A1, “USE OF BIO-TRANSFORMED BEAR BILE POWDER IN PREPARATION OF ANTI-INFLAMMATORY DRUGS” (SHANGHAI KAIBAO PHARMACEUTICAL CO., LTD., priority 2019, published 2021)
# System: carrageenan-induced inflammation model
# Test: plantar swelling of carrageenan-induced inflammation model in rats
# Assay type: in vivo, SD rats
# Details: intragastric once, 0.007 g/kg
# Protocol: Animal germline: specific pathogen-free (SPF) male SD rats, aged 6-week-old, weighing between 132 g and 199 g when received, and weighing between 152 g and 225 g when drugs are administered to rats, were purchased from Hunan Slake Jingda laboratory Animal Co., Ltd. The laboratory animal production license: SCXK (Xiang) 2016-0002 (valid until Sep. 29, 2021), issued by China Hunan Provincial Science & Technology Department. The laboratory animal quality certificate No.: 43004700060779.
# Method for grouping animals: after the quarantine was over, rats that have passed the quarantine inspection were selected for experiments. Groups were randomly assigned on the basis of body weight and divided into 9 groups with 10 rats per group. The 9 groups were as follows: a negative control group, a model group, a group of rats treated with low-dose bio-transformed bear bile powder, a group of rats treated with middle-dose bio-transformed bear bile powder, a group of rats treated with high-dose bio-transformed bear bile powder, a group of rats treated with low-dose natural bear bile powder, a group of rats treated with middle-dose natural bear bile powder, a group of rats treated with high-dose natural bear bile powder, and a positive control group.
# Dose and group design for the experiment: a total of 9 groups are contemplated, that is, negative control group (blank control group), a model group, a group of rats treated with low-dose bio-transformed bear bile powder, a group of rats treated with middle-dose bio-transformed bear bile powder, a group of rats treated with high-dose bio-transformed bear bile powder, a group of rats treated with low-dose natural bear bile powder, a group of rats treated with middle-dose natural bear bile powder, a group of rats treated with high-dose natural bear bile powder, and a positive control group (a group of rats treated with indomethacin).
# Administration route, administration frequency, and administration period of the test substance and the control: each of them was administered intragastrically, the administration volume was 10 mL/kg, and each group was administered once.
# Experimental method: SD male rats that had passed the quarantine inspection were selected for experiments. Groups were divided into 9 groups with 10 male rats per group. The 9 groups were as follows: a negative control group, a model group, a group of rats treated with low-dose bio-transformed bear bile powder, a group of rats treated with middle-dose bio-transformed bear bile powder, a group of rats treated with high-dose bio-transformed bear bile powder, a group of rats treated with low-dose natural bear bile powder, a group of rats treated with middle-dose natural bear bile powder, a group of rats treated with high-dose natural bear bile powder, and a positive control indomethacin group. Before molding, each animal was scored at the ankle joint of the right hind foot, and the volume of the right hind foot was measured with a plantar volume measuring instrument, and it was measured continuously 2 times, wherein the average value obtained from the two measurements was taken as a base volume.
# Except for the blank control group, the animals in the remaining groups were injected with 1% by weight of carrageenan suspension at the right hind foot metatarsal palmar fascia, the volume for each rat was 0.1 mL; animals in the blank control group were injected with an equal volume of normal saline; corresponding drugs were administered intragastrically immediately after an injection of carrageenan. The plantar volume of the right hind foot of each group of animals was measured at 1 h, 2 h, 3 h, 4 h, 5 h, and 6 h after injection, and was measured twice consecutively, and the average value obtained from the two measurements was taken as the plantar volume after modeling. The plantar swelling and the plantar swelling inhibition rate were calculated according to the plantar volume measured at different time points after inflammation was induced. […]
compound,measurement,setting,value
"COc1ccc2c(c1)c(CC(=O)O)c(C)n2C(=O)c1ccc(Cl)cc1 [Positive control, indomethacin]",Plantar swelling 1 h,1 h after carrageenan,0.21 ± 0.14 mL
same,Plantar swelling 2 h,2 h after carrageenan,0.25 ± 0.16 mL
same,Plantar swelling 3 h,3 h after carrageenan,0.29 ± 0.15 mL
same,Plantar swelling 4 h,4 h after carrageenan,0.15 ± 0.12 mL
same,Plantar swelling 5 h,5 h after carrageenan,0.19 ± 0.09 mL
same,Plantar swelling 6 h,6 h after carrageenan,0.17 ± 0.10 mL
